Laboratory results as given in patent publication US20260217701A1, “SELECTIVE BET INHIBITORS AND USES THEREOF” (Tay Therapeutics Limited, priority 2022, published 2026).
Where “and” joins values, the source holds several entries; their conditions need not be identical. Equal entries are not always repeated.

Tested on: imiquimod-induced psoriasis
Test: Imiquimod-induced psoriasis model
Assay type: in vivo, mice
Conditions: for PASI Scores / Number Licking / Number Licking + Scratching / Number Scratching / Distance Traveled / Number Rearings: individual animals; for Distance Traveled / Number Rearings: behavioral evaluation
Summary of the method: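 Mice given topical imiquimod (5% cream) daily on depilated backs Days 1–14; Compound A in 5% DMSO/40% PEG-400/55% saline from Day 8, clobetasol topical as reference. Daily PASI (erythema, induration, peeling, each 0–4, summed) Days 8–15; spleen weight, open-field behaviour, serum IL-1B, IL-6, IL-17, TNF-α, IL-22, IL-23 at Day 15.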

[1] = IMI-psoriasis model, behavioral evaluation D15, 1 mg/kg
[2] = IMI-psoriasis model, behavioral evaluation D15, 3 mg/kg
[3] = IMI-psoriasis model, behavioral evaluation D15, 10 mg/kg

Cn1cc(-c2ccccc2)c(-c2cn(C)c(=O)c3[nH]c(-c4cnn(C(F)(F)F)c4)cc23)cc1=O [Compound A, 6-methyl-4-(1-methyl-2-oxo-5-phenyl-1,2-dihydropyridin-4-yl)-2-(1-(trifluoromethyl)-1H-pyrazol-4-yl)-1,6-dihydro-7H-pyrrolo[2,3-c]pyridin-7-one]
PASI Scores (IMI + Compound A 1 mg/kg, D12, 1 mg/kg): 6 and 4 (4×) and 5 (2×) and 3
PASI Scores (IMI + Compound A 1 mg/kg, D13, 1 mg/kg): 3 (4×) and 2 (2×) and 4 and 5
PASI Scores (IMI + Compound A 1 mg/kg, D14, 1 mg/kg): 1 (2×) and 2 (3×) and 3 (3×)
PASI Scores (IMI + Compound A 1 mg/kg, D15, 1 mg/kg): 1 (5×) and 2 (2×) and 0
PASI Scores (IMI + Compound A 3 mg/kg, D8 (day treatment started), 3 mg/kg): 8 and 6 and 7 and 5 and 9
PASI Scores (IMI + Compound A 3 mg/kg, D9, 3 mg/kg): 8 (3×) and 5 and 6
PASI Scores (IMI + Compound A 3 mg/kg, D10, 3 mg/kg): 6 and 7 and 4 and 5 (2×)
PASI Scores (IMI + Compound A 3 mg/kg, D11, 3 mg/kg): 4 (2×) and 3 (2×) and 5
PASI Scores (IMI + Compound A 3 mg/kg, D12, 3 mg/kg): 3 and 4 and 2 and 5
PASI Scores (IMI + Compound A 3 mg/kg, D13, 3 mg/kg): 2 (3×) and 0
PASI Scores (IMI + Compound A 3 mg/kg, D14, 3 mg/kg): 2 and 0 (2×) and 1
PASI Scores (IMI + Compound A 3 mg/kg, D15, 3 mg/kg): 1 (2×) and 0 (2×)
Use Enrichment D1 (IMI-psoriasis model, D1, 1 mg/kg, per cage (two animals)): 4.0
Use Enrichment D1 (IMI-psoriasis model, D1, 3 mg/kg, per cage (two animals)): 4.0 and 3.5
Use Enrichment D1 (IMI-psoriasis model, D1, 10 mg/kg, per cage (two animals)): 4.0
Use Enrichment D8 (IMI-psoriasis model, D8, 1 mg/kg, per cage (two animals)): 1.0 and 1.5
Use Enrichment D10 (IMI-psoriasis model, D10, 1 mg/kg, per cage (two animals)): 2.5 and 3.5 and 2.0
Use Enrichment D10 (IMI-psoriasis model, D10, 3 mg/kg, per cage (two animals)): 2.0 and 3.0
Use Enrichment D10 (IMI-psoriasis model, D10, 10 mg/kg, per cage (two animals)): 3.0 and 4.0
Use Enrichment D11 (IMI-psoriasis model, D11, 1 mg/kg, per cage (two animals)): 3.0 and 4.0 and 2.0
Use Enrichment D11 (IMI-psoriasis model, D11, 3 mg/kg, per cage (two animals)): 3.0 and 4.0
Use Enrichment D11 (IMI-psoriasis model, D11, 10 mg/kg, per cage (two animals)): 3.0 and 4.0
Use Enrichment D12 (IMI-psoriasis model, D12, 1 mg/kg, per cage (two animals)): 2.0 and 2.5 and 4.0
Use Enrichment D12 (IMI-psoriasis model, D12, 3 mg/kg, per cage (two animals)): 3.0
Use Enrichment D12 (IMI-psoriasis model, D12, 10 mg/kg, per cage (two animals)): 2.0 and 4.0 and 3.0
Use Enrichment D13 (IMI-psoriasis model, D13, 1 mg/kg, per cage (two animals)): 4.0
Use Enrichment D13 (IMI-psoriasis model, D13, 3 mg/kg, per cage (two animals)): 4.0
Use Enrichment D13 (IMI-psoriasis model, D13, 10 mg/kg, per cage (two animals)): 4.0
Use Enrichment D14 (IMI-psoriasis model, D14, 1 mg/kg, per cage (two animals)): 4.0
Use Enrichment D14 (IMI-psoriasis model, D14, 3 mg/kg, per cage (two animals)): 4.0
Use Enrichment D14 (IMI-psoriasis model, D14, 10 mg/kg, per cage (two animals)): 4.0
Use Enrichment D15 (IMI-psoriasis model, D15, 1 mg/kg, per cage (two animals)): 4.0
Use Enrichment D15 (IMI-psoriasis model, D15, 3 mg/kg, per cage (two animals)): 4.0
Use Enrichment D15 (IMI-psoriasis model, D15, 10 mg/kg, per cage (two animals)): 4.0
Number Licking [1]: 3 (2×) and 5 and 1 and 4 and 2 (2×) and 0
Number Licking + Scratching [1]: 3 (2×) and 5 (2×) and 8 and 2 (2×) and 0
Number Scratching [1]: 0 (6×) and 7 and 1
Number Licking [2]: 3 and 5 and 1 (3×) and 4 (2×)
Number Licking + Scratching [2]: 3 and 5 and 1 (3×) and 4 (2×)
Number Scratching [2]: 0
Number Licking [3]: 2 (4×) and 7 and 1 and 4 and 5
Number Licking + Scratching [3]: 3 and 11 and 2 (3×) and 4 (2×) and 5
Number Scratching [3]: 1 (2×) and 4 and 0 (4×) and 2
Distance Traveled (IMI-psoriasis model, 1 mg/kg): 18 m and 11 m and 14 m (2×) and 12 m and 16 m (2×) and 4 m
Number Rearings (IMI-psoriasis model, 1 mg/kg): 42 and 52 and 50 and 55 and 35 and 78 and 46 and 4
Distance Traveled (IMI-psoriasis model, 3 mg/kg): 12 m (3×) and 13 m (2×) and 8 m and 9 m
Number Rearings (IMI-psoriasis model, 3 mg/kg): 41 and 43 and 34 (2×) and 24 and 8 and 47
Distance Traveled (IMI-psoriasis model, 10 mg/kg): 4 m and 13 m (2×) and 10 m and 8 m and 7 m and 6 m and 11 m
Number Rearings (IMI-psoriasis model, 10 mg/kg): 6 and 39 and 38 and 46 and 11 and 21 and 13 and 55
Use Enrichment Mean D1-D8 (IMI-psoriasis model, mean D1-D8, 1 mg/kg, per cage (two animals)): 2.50 and 2.75
Use Enrichment Mean D1-D8 (IMI-psoriasis model, mean D1-D8, 3 mg/kg, per cage (two animals)): 2.50 and 2.00 and 2.25
Use Enrichment Mean D1-D8 (IMI-psoriasis model, mean D1-D8, 10 mg/kg, per cage (two animals)): 2.50 and 2.75 and 2.00
Use Enrichment Mean D8-D15 (IMI-psoriasis model, mean D8-D15, 1 mg/kg, per cage (two animals)): 3.00 and 3.36 and 3.14
Use Enrichment Mean D8-D15 (IMI-psoriasis model, mean D8-D15, 3 mg/kg, per cage (two animals)): 3.00 and 3.14 and 2.86
